Columns and labels:
[1] = system: A549; assay: Induction of apoptosis in human A549 cells assessed as necrotic cells at 4 uM after 24 hrs in presence of paclitaxel by Annexin V/propidium iodide staining-based flow cytometric analysis (reference value: 1.1%); assay type: functional
[2] = AUC (0 to 24 hrs) in C57BL/6 mouse plasma at 40 mg/kg, po administered via gavage by LC-MS/MS analysis; assay type: ADME, organism-based; parameters: time < 24 hr, dose 40 mg/kg, route oral; conditions: in vivo
[3] = Drug uptake in C57BL/6 mouse lung at 40 mg/kg, po administered via gavage co-administered with paclitaxel at 10 mg/kg, ip by LC-MS/MS analysis; assay type: ADME, organism-based; conditions: in vivo
[4] = Ratio of compound AUC (0 to 24 hrs) to ACY-1215 AUC (0 to 24 hrs) in C57BL/6 mouse kidney at 40 mg/kg, po administered via gavage by LC-MS/MS analysis; assay type: ADME, organism-based; conditions: in vivo
[5] = system: A549; assay: Induction of apoptosis in human A549 cells assessed as late apoptotic cells at 4 uM after 24 hrs in presence of paclitaxel by Annexin V/propidium iodide staining-based flow cytometric analysis (reference value: 1.6%); assay type: functional
[6] = system: A549; assay: Induction of apoptosis in human A549 cells assessed as viable cells at 4 uM after 24 hrs by Annexin V/propidium iodide staining-based flow cytometric analysis (reference value: 96.2%); assay type: functional
[7] = Drug metabolism in C57BL/6 mouse plasma assessed as hydrolysis metabolite formation at 40 mg/kg, po administered via gavage by LC-MS/MS analysis; assay type: ADME, organism-based; conditions: in vivo
[8] = Ratio of AUC (0 to 24 hrs) in lung to plasma of C57BL/6 mouse at 40 mg/kg, po administered via gavage by LC-MS/MS analysis; assay type: ADME, organism-based; conditions: read-out: Ratio AUC
[9] = Ratio of drug uptake in C57BL/6 mouse liver at 40 mg/kg, po administered via gavage co-administered with paclitaxel at 10 mg/kg, ip by LC-MS/MS analysis to drug uptake in C57BL/6 mouse liver at 40 mg/kg, po administered via gavage by LC-MS/MS analysis; assay type: ADME, organism-based; conditions: in vivo
[10] = system: Lewis lung carcinoma cell line; assay: Induction of apoptosis in mouse LL/2 cells assessed as viable cells at 4 uM after 24 hrs in presence of paclitaxel by Annexin V/propidium iodide staining-based flow cytometric analysis (reference value: 82.3%); assay type: functional
[11] = Drug uptake in C57BL/6 mouse plasma at 40 mg/kg, po administered via gavage by LC-MS/MS analysis; assay type: ADME, organism-based; conditions: in vivo
[12] = system: Lewis lung carcinoma cell line; assay: Cytotoxicity against mouse LL/2 cells after 72 hrs by MTT assay; assay type: functional, cell-based
[13] = Ratio of drug uptake in C57BL/6 mouse kidney at 40 mg/kg, po administered via gavage co-administered with paclitaxel at 10 mg/kg, ip by LC-MS/MS analysis to drug uptake in C57BL/6 mouse kidney at 40 mg/kg, po administered via gavage by LC-MS/MS analysis; assay type: ADME, organism-based; conditions: in vivo
[14] = target: T1, Protein deacetylase HDAC6 (Homo sapiens, UniProt Q9UBN7); assay: Competitive inhibition of human full-length recombinant HDAC6 expressed in baculovirus infected Sf9 insect cells using Boc-Lys (Ac)-AMC as substrate preincubated for 10 mins followed by substrate addition and measured after 30 mins by fluorescence assay
T1 sequence (Q9UBN7 whole entry): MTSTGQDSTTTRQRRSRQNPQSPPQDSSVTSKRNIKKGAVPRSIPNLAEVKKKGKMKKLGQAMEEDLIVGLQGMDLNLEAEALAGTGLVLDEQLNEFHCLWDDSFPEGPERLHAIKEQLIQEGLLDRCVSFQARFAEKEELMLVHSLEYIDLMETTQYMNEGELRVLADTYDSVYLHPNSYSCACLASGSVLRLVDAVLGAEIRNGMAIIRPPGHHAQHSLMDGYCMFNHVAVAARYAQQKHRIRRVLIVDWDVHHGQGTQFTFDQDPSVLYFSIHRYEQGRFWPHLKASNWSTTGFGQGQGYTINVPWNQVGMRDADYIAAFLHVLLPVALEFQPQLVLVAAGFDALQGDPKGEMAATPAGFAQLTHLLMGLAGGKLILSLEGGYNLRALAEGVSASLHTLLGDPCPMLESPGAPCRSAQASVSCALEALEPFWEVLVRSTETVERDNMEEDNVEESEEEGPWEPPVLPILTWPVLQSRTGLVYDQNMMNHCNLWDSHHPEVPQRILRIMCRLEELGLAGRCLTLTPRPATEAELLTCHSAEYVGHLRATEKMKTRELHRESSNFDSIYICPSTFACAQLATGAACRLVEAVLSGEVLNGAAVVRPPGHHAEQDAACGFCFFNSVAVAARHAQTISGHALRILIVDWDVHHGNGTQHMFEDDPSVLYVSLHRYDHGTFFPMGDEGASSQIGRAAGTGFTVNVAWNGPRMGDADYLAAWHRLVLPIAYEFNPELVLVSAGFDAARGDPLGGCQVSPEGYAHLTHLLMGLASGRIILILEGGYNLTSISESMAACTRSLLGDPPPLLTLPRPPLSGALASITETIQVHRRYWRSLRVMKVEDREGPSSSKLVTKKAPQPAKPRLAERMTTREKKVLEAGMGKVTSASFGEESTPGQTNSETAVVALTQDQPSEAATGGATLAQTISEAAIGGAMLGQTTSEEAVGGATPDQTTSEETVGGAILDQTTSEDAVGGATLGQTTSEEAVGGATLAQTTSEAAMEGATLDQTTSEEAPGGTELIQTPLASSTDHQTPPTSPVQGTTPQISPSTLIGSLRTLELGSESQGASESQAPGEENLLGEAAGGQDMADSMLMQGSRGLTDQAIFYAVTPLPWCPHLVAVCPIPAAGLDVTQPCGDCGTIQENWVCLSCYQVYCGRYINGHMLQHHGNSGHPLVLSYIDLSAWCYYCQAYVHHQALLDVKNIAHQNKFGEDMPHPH

[15] = system: Lewis lung carcinoma cell line; assay: Antitumor activity against mouse LL/2 cells implanted in C57BL/6 mouse assessed as tumor growth inhibition at 40 to 80 mg/kg, po qd administered for 21 consecutive days relative to control; assay type: functional
[16] = Drug uptake in C57BL/6 mouse plasma at 40 mg/kg, po administered via gavage co-administered with paclitaxel at 10 mg/kg, ip by LC-MS/MS analysis; assay type: ADME, organism-based; conditions: in vivo
[17] = Drug uptake in C57BL/6 mouse liver at 40 mg/kg, po administered via gavage by LC-MS/MS analysis; assay type: ADME, organism-based; conditions: in vivo
[18] = Drug metabolism in C57BL/6 mouse kidney assessed as hydrolysis metabolite formation at 40 mg/kg, po administered via gavage by LC-MS/MS analysis; assay type: ADME, organism-based; conditions: in vivo
[19] = Ratio of compound AUC (0 to 24 hrs) to ACY-1215 AUC (0 to 24 hrs) in C57BL/6 mouse lung at 40 mg/kg, po administered via gavage by LC-MS/MS analysis; assay type: ADME, organism-based; conditions: in vivo
[20] = system: A549; assay: Induction of apoptosis in human A549 cells assessed as early apoptotic cells at 4 uM after 24 hrs in presence of paclitaxel by Annexin V/propidium iodide staining-based flow cytometric analysis (reference value: 1.2%); assay type: functional
[21] = Drug uptake in C57BL/6 mouse kidney at 40 mg/kg, po administered via gavage co-administered with paclitaxel at 10 mg/kg, ip by LC-MS/MS analysis; assay type: ADME, organism-based; conditions: in vivo

**Q.** For `O=C(NO)c1ccc(Cn2c(=O)n(CCc3ccccc3)c(=O)c3ccccc32)cc1`, which Activity [1] is on record?
**A.** 0.5%

**Q.** What about the AUC [2] of the same compound?
**A.** 71 ng·h/g

**Q.** And the Drug uptake [3]?
**A.** 331 ng/g

**Q.** And the “Ratio AUC” value [4]?
**A.** 0.8

**Q.** What about the Activity [5] of the same compound?
**A.** 1.3%

**Q.** What about the Activity [6] of the same compound?
**A.** 97.4%

**Q.** What about the Drug metabolism [7] of the same compound?
**A.** Metabolite_Detected

**Q.** And the Kp [8]?
**A.** 18.8

**Q.** What about the Ratio [9] of the same compound?
**A.** 0.9

**Q.** What about the Activity [10] of the same compound?
**A.** 64.8%

**Q.** What about the Cp [11] of the same compound?
**A.** 13 ng/mL

**Q.** And the IC50 [12]?
**A.** 7.87 µM

**Q.** What about the Ratio [13] of the same compound?
**A.** 3

**Q.** And the Ki [14]?
**A.** 0.0016 µM

**Q.** What about the TGI [15] of the same compound?
**A.** 63.4%

**Q.** And the Cp [16]?
**A.** 160 ng/mL

**Q.** And the Drug uptake [17]?
**A.** 782 ng/g

**Q.** And the Drug metabolism [18]?
**A.** Metabolite_Detected

**Q.** What about the “Ratio AUC” value [19] of the same compound?
**A.** 2.1

**Q.** What about the Activity [20] of the same compound?
**A.** 5.4%

**Q.** And the Drug uptake [21]?
**A.** 392 ng/g

— ChEMBL document CHEMBL4330076, “Quinazolin-2,4-dione-Based Hydroxamic Acids as Selective Histone Deacetylase-6 Inhibitors for Treatment of Non-Small Cell Lung Cancer” (J Med Chem, 2019)
